# Tests used:
# [1] = Thermal stability (TGA, variable temperature XRPD); format: physicochemical
# Description: Crystals of Form C can be converted (3) to crystals of Form A. For example, crystals of Form C are converted to crystals of Form A by heating the crystals of Form C to 155° C. under nitrogen. Furthermore, crystals of Form C can be converted (5) to crystals of Form F. For example, crystals of Form C are converted to crystals of Form F by heating to 136° C. under nitrogen. […] Further heating of this sample generates a mixture of crystals of Form A and Form F.
# Compound 1 appears to be chemically stable up to the decomposition temperature of about 250° C. […] The solid-state stability of the crystalline forms is compared by evaluating the relative “thermodynamic stability” of the crystalline forms and the interconversion between crystalline forms upon heating or when slurrying.
# TGA was conducted for each crystalline form using a TA Q500/Q5000 TGA from TA Instruments. For each analysis, the TGA cell/sample chamber was purged with ultra-high purity nitrogen gas. The sample crystal was placed into the bottom of an open aluminium pan. […] The weight was plotted versus the measured sample temperature. The data were reported in % of the initial weight. The TGA thermograms for Forms A to F were obtained and can be seen at FIGS. 7 to 12.
# [2] = biological target: VR1 receptor (Homo sapiens, UniProt Q8NER1); details: whole cells, intracellular Ca2+ imaging, assay of WO 2008018827; read-out: IC50, antagonist of capsaicin responses; cited from earlier work
# [3] = Stability tests for Form A (temperature, relative humidity, compression; XRPD); format: physicochemical
# Description: Experiments were conducted to evaluate the stability of Form A under various temperature, relative humidity and compression conditions.
# [4] = Slurry conversion of Form A/Form E and Form A/Form F mixtures in IPA; format: physicochemical; details: equal-mass mixtures with Form E or Form F in pre-saturated IPA, room temperature, 48 h
# Description: Excess amounts of crystals of Form A were added to 2 mL of IPA. The mixture was magnetically stirred at a speed of 750 rpm at room temperature overnight to obtain a saturated solution. The saturated solution was filtered on a PTFE membrane (0.45 μm) to remove the excess solids.
# (§1) An equal-mass physical mixture of crystals of Form A and Form E (6 mg of each Form) was added into 0.5 mL of the pre-saturated IPA solution and magnetically stirred at a speed of 750 rpm for 48 h. Solids were isolated from the suspension by centrifugation and an XRPD test was performed (shown at FIG. 19(b)).
# as §1, with “Similarly, an” for “An”, “F” for “E”, “19(c)).” for “19(b)).”
# In the case of both mixtures, only crystals of Form A were isolated after stirring for 48 h.
# [5] = Approximate solubility of crystals of Form A at room temperature; format: physicochemical; details: thermodynamic from solid
# Description: Approximately 2 mg solids were added into a 3-mL glass vial. Solvents as listed in Table 7 were then added stepwise into the vials until the solids were dissolved or a total volume of 1 mL was reached. The results are summarized in Table 7, and were used to guide solvent selection in the polymorph screening.
# Sequence of VR1 receptor (Q8NER1 whole entry): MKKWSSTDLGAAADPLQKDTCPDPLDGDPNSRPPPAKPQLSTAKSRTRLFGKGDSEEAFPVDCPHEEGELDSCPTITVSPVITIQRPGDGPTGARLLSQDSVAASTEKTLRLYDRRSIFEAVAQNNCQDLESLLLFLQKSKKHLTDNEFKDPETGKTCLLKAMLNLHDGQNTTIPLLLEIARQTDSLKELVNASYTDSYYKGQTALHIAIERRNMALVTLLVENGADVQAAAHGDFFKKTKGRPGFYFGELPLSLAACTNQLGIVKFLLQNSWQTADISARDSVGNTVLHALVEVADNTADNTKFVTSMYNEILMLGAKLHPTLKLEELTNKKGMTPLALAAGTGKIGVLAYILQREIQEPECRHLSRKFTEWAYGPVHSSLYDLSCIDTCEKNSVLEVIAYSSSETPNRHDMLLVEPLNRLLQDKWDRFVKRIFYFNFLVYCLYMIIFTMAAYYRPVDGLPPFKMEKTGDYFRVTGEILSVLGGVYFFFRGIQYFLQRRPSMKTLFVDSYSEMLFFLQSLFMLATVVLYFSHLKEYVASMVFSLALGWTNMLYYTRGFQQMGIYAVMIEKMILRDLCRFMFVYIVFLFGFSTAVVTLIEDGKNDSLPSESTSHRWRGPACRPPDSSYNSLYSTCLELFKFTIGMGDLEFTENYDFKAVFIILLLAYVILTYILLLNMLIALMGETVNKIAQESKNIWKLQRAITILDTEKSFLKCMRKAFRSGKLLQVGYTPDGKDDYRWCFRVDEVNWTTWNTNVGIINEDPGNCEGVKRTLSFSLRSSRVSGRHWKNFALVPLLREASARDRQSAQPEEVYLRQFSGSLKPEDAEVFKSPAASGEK
smiles,measurement,setting,value
"C[C@H](NC(=O)Cn1cnc2cccc(C#N)c21)c1ccc(C(C)(C)C#N)cc1 [Compound 1, (S)-2-(7-Cyano-1H-benzimidazol-1-yl)-N-{1-[4-(1-cyano-1-methylethyl)phenyl]ethyl}acetamide]",Decomposition temperature (chemically stable up to),"[1]; TGA, 10° C./min, nitrogen",about 250 °C
same,IC50,[2],41 to 49 nM
"C[C@H](NC(=O)Cn1cnc2cccc(C#N)c21)c1ccc(C(C)(C)C#N)cc1 [Form A, (S)-2-(7-Cyano-1H-benzimidazol-1-yl)-N-{1-[4-(1-cyano-1-methylethyl)phenyl]ethyl} acetamide]",Temperature up to which the crystalline form is stable,"[1]; heating, variable temperature XRPD / DSC",about 167.9 °C
same,Effect of grinding on XRPD,[3]; aggressive grinding for 2 minutes,minor decrease in the relative intensity of the peaks
same,Stability of the crystal structure (XRPD) on stressed samples,"[3]; various temperature, relative humidity and compression conditions, compared to Form A as synthesized",crystalline structure remained generally similar
same,Thermodynamic stability by slurry conversion,[4],thermodynamically stable form at room temperature among the three anhydrate Forms
same,solubility,"[5]; 25 °C, organic solvent or mixture, 1,4-Dioxane, room temperature",> 36 mg/mL
same,solubility,"[5]; 25 °C, organic solvent or mixture, 2-MeTHF, room temperature",> 36 mg/mL
same,solubility,"[5]; 25 °C, organic solvent or mixture, ACN, room temperature",> 40 mg/mL
same,solubility,"[5]; 25 °C, organic solvent or mixture, Acetone, room temperature",> 38 mg/mL
same,solubility,"[5]; 25 °C, organic solvent or mixture, Anisole, room temperature",7.3 to 22 mg/mL
same,solubility,"[5]; 25 °C, organic solvent or mixture, CHCl3, room temperature",> 42 mg/mL
same,solubility,"[5]; 25 °C, organic solvent or mixture, DCM, room temperature",> 40 mg/mL
same,solubility,"[5]; 25 °C, organic solvent or mixture, DMAc, room temperature",> 36 mg/mL
same,solubility,"[5]; 25 °C, organic solvent or mixture, DMSO, room temperature",> 44 mg/mL
same,solubility,"[5]; 25 °C, organic solvent or mixture, EtOAc, room temperature",22 to 44 mg/mL
same,solubility,"[5]; 25 °C, organic solvent or mixture, EtOH, room temperature",> 40 mg/mL
same,solubility,"[5]; 25 °C, organic solvent or mixture, IPA, room temperature",7 to 21 mg/mL
same,solubility,"[5]; 25 °C, organic solvent or mixture, IPAc, room temperature",6.7 to 20 mg/mL
same,solubility,"[5]; 25 °C, organic solvent or mixture, MEK, room temperature",> 40 mg/mL
same,solubility,"[5]; 25 °C, organic solvent or mixture, MIBK, room temperature",18 to 36 mg/mL
same,solubility,"[5]; 25 °C, organic solvent or mixture, MTBE, room temperature",< 1.8 mg/mL
same,solubility,"[5]; 25 °C, organic solvent or mixture, THF, room temperature",> 40 mg/mL
same,solubility,"[5]; 25 °C, organic solvent or mixture, Toluene, room temperature",< 2.1 mg/mL
same,solubility,"[5]; 25 °C, organic solvent or mixture, n-Heptane, room temperature",< 2.2 mg/mL
same,solubility,"[5]; organic solvent or mixture, MeOH, room temperature (25° C.±2° C.)",> 42 mg/mL
same,solubility,"[5]; water, 25 °C, H2O, room temperature",< 2.1 mg/mL

# From patent US20220089550A1, “CRYSTALLINE FORMS OF (S)-2-(7-CYANO-1H-BENZIMIDAZOL-1 YL)-N-{1-[4-(1-CYANO-1-METHYLETHYL)PHENYL]ETHYL}ACETAMIDE” (NEOMED INSTITUTE - INSTITUT NEOMED, priority 2019, published 2022)
